Calls of active or inactive are those of the source.
How the values were obtained:
INS1 = assay: INS-1E survival protection against cytokine death – cell-based, luminescence, retest, dose response (AID 449756); assay type: functional; conditions: Rattus norvegicus, INS1;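 also: cell death triggered by IL-1 beta plus TNF-alpha plus IFN-gamma mixture; protective hits raise ATP signal compared with cytokine alone wells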
Cytochrome P450 3A4 = Cytochrome P450 3A4 (Homo sapiens, UniProt P08684);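 also: CYP3A4 tested as one member of a cytochrome P450 panel screen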
Cytochrome P450 1A2 = molecular target: T1, Cytochrome P450 1A2 (Homo sapiens, UniProt P05177);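 also: PubChem cytochrome P450 panel assay, CYP1A2 panel member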
T1 sequence (P05177 whole entry): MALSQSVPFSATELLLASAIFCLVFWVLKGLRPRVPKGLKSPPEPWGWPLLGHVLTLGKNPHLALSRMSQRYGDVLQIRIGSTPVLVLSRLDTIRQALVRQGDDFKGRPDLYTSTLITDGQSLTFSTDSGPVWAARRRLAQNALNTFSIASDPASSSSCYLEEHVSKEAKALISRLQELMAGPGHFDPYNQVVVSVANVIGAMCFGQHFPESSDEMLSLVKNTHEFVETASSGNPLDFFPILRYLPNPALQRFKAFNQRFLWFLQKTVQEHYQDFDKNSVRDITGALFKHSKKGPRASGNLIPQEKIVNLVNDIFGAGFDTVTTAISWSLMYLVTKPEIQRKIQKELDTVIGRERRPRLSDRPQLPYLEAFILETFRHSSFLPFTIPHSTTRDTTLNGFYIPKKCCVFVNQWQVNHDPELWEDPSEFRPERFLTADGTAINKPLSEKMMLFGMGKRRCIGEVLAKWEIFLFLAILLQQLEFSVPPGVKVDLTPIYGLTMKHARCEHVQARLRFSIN

Streptococcus = assay: GAS UMAA2166 growth inhibition – luminescence, BacTiterGlo, counter-screen for streptokinase expression inhibitor project, dose response (AID 1915); assay type: functional, organism-based;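 also: potency for reduction of bacterial viability or growth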
[1] = test system: Streptococcus sp. 'group A'; assay: Streptococcus pyogenes SK(-)GAS viability under kanamycin – luminescence, BacTiterGlo, confirmation, counter-screen for streptokinase expression inhibitor project, dose response (AID 1900); assay type: functional, organism-based
Streptokinase A = molecular target: T2, Streptokinase A (Streptococcus pyogenes serotype M1, UniProt P10520); assay: viability-normalized secreted streptokinase activity reduction – plasminogen activation absorbance, OD405, dose response (AID 1914); assay type: functional, Streptococcus pyogenes M1 GAS;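 also: secreted streptokinase activity via plasminogen activation per viability signal from cell pellet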
T2 sequence (P10520 whole entry): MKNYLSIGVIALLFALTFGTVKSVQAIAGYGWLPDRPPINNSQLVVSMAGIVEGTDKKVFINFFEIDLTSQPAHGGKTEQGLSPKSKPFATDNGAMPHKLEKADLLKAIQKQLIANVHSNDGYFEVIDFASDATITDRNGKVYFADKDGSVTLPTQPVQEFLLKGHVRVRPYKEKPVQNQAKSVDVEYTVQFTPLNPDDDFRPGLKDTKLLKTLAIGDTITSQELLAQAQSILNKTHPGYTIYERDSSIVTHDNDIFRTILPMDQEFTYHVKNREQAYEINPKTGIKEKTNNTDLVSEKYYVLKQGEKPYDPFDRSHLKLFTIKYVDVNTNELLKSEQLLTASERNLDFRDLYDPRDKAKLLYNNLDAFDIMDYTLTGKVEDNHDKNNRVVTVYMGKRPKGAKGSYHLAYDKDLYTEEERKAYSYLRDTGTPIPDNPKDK

Protein skinhead-1 = molecular target: T3, Protein skinhead-1 (Caenorhabditis elegans, UniProt P34707); assay type: functional
T3 sequence (P34707 whole entry): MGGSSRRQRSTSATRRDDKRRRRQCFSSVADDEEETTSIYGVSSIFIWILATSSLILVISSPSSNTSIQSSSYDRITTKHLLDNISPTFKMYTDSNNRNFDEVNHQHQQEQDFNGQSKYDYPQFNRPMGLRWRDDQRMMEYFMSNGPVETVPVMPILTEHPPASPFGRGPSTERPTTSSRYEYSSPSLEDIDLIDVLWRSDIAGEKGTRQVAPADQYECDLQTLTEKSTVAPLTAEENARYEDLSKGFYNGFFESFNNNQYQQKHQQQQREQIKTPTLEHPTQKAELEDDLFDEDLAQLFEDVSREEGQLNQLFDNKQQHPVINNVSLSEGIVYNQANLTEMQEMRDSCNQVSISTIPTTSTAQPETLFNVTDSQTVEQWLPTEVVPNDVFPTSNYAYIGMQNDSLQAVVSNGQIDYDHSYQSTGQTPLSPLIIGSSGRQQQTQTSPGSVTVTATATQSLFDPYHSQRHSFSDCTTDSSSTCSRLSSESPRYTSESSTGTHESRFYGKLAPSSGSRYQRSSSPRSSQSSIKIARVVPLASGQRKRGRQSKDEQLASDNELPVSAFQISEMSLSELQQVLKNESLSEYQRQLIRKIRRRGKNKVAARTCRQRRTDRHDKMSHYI

[2] = molecular target: T4, Corticotropin-releasing factor receptor 2/Corticotropin-releasing factor-binding protein (Homo sapiens, UniProt P24387+Q13324); assay: Dose Response confirmation of uHTS hits for small molecule antagonists of the CRF-binding protein and CRF-R2 receptor complex.; assay type: functional; conditions: read-out: IC50_Mean
T4 sequence (Q13324 whole entry): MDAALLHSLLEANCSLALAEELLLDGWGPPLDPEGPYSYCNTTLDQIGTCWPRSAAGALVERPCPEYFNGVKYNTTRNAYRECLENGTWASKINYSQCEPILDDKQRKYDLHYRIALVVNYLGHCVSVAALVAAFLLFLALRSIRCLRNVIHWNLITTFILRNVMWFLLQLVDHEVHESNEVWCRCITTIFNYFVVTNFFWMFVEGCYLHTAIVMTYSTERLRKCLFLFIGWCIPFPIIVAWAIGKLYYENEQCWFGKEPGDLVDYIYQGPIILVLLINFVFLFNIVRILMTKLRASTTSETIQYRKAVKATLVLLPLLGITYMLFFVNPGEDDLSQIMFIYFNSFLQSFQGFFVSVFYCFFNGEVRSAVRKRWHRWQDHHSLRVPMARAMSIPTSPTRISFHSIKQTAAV
T4 sequence (P24387 whole entry): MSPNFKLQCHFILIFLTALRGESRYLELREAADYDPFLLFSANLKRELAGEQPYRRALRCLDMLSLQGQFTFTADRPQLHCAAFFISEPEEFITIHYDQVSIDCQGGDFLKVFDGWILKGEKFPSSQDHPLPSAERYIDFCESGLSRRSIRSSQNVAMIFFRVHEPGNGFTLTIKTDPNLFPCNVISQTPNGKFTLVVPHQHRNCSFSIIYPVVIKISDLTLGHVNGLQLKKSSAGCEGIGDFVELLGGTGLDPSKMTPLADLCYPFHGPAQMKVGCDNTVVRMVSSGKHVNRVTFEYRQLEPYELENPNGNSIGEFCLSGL

[3] = molecular target: T4, Corticotropin-releasing factor receptor 2/Corticotropin-releasing factor-binding protein; assay: activators of CRF receptor 2 with binding protein – uHTS hits, confirmation (AID 602473); assay type: functional; conditions: read-out: EC50_Mean
Cytochrome P450 2D6 = Cytochrome P450 2D6 (Homo sapiens, UniProt P10635);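 also: CYP2D6 member of a cytochrome P450 panel assay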
Chain of Cytochrome P450 2D6 (P10635 whole entry): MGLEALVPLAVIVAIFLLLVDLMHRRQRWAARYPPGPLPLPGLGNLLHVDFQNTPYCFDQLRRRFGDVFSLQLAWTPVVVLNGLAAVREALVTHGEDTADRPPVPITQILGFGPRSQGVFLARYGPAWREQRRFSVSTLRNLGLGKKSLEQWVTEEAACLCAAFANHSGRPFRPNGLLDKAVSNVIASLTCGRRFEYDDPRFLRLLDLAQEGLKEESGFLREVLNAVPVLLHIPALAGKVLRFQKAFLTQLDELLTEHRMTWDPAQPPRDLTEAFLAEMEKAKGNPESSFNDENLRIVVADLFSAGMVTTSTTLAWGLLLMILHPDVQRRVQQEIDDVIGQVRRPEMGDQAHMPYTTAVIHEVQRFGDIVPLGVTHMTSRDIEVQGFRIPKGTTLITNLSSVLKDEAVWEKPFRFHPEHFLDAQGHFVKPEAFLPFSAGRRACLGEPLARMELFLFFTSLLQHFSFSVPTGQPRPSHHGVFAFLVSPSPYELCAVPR

Chain of Cytochrome P450 3A4 (P08684 whole entry): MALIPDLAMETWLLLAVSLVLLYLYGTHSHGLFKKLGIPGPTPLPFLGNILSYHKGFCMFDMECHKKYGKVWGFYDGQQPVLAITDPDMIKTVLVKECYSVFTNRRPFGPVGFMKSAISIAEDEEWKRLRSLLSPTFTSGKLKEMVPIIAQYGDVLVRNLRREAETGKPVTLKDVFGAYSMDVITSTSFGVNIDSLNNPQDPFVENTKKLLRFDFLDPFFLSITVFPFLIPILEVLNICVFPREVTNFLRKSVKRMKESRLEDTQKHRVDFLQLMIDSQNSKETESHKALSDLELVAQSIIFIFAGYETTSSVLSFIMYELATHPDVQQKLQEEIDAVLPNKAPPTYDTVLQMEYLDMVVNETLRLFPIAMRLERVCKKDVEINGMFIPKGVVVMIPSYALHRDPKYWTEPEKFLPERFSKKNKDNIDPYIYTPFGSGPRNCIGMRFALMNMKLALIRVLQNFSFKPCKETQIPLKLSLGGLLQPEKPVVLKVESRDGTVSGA

CCOc1ccc(-n2c(=O)[nH]cc(C(=O)Nc3ccc(OC)c(OC)c3)c2=O)cc1
AC50 (INS1): > 260 µM (inactive)

COc1ccc(N2C(=O)NC(NC(=O)c3ccncc3)(C(F)(F)F)C2=O)cc1 (stereo not drawn)
AC50 (Cytochrome P450 3A4): 22.4 µM (inconclusive)

CN1CCN(c2ncc3nc(-c4cc(F)cc(F)c4)c(=O)n(Cc4cccs4)c3n2)CC1
AC50 (Cytochrome P450 1A2): 6.31 µM (inconclusive)
AC50 (Cytochrome P450 3A4): 25.1 µM (inconclusive)

O=C(NC(=S)N1CCN(c2nc(-c3ccccc3)cs2)CC1)c1cccnc1
EC50 (Streptococcus): > 150 µM (not active)
EC50 [1]: 5.55 µM (active)
EC50 (Streptokinase A): > 150 µM (not active)

Clc1ccc2nc(N3CCCCC3)sc2c1
IC50 (Protein skinhead-1): 29.2 µM (active)

COC(=O)c1sc2ccccc2c1-n1cccc1C(=O)C(=O)Nc1ccc(Cl)cc1
AC50 (Cytochrome P450 1A2): 2.82 µM (inconclusive)
AC50 (Cytochrome P450 3A4): 14.1 µM (inconclusive)

Clc1cccc(CSc2ncn(-c3ccccc3)n2)c1
IC50 (Protein skinhead-1): 24.7 µM (active)

COc1ccc2nc(Nc3nc4cc5c(cc4s3)OCO5)sc2c1
EC50 (Streptococcus): > 150 µM (not active)
EC50 [1]: 1.17 µM (active)
EC50 (Streptokinase A): > 150 µM (not active)

O=C(Nc1ccc(N2CCCCC2)cc1)c1ccc2ccccc2n1
IC50 (Protein skinhead-1): > 100 µM (inactive)

Cc1cc(C)n(C(=O)/C(C#N)=N/Nc2cc(Cl)cc(Cl)c2)n1
EC50 (Streptococcus): 12.3 µM (active)
EC50 [1]: 2.34 µM (active)
EC50 (Streptokinase A): > 150 µM (not active)

Cc1nn2c(N)c(-c3ccccc3)cnc2c1-c1ccc(Cl)cc1
IC50 [2]: > 47.1 µM (inactive)
EC50 [3]: > 53 µM (inactive)

COc1ccc(C2CC(=O)c3cnc(N4CCN(Cc5ccccc5)CC4)nc3C2)cc1 (stereo not drawn)
EC50 (Streptococcus): 21.6 µM (active)
EC50 [1]: 14.9 µM (active)
EC50 (Streptokinase A): > 150 µM (not active)

Clc1ccccc1-c1nnc(-c2ccccc2Cl)o1
IC50 (Protein skinhead-1): 53.8 µM (inactive)

CC1CCN(C(=O)c2ccc(COc3ccccc3Cl)o2)CC1
AC50 (Cytochrome P450 2D6): 28.2 µM (inconclusive)
AC50 (Cytochrome P450 3A4): 31.6 µM (inconclusive)

COC(C(=O)Nc1ccc(F)cc1)c1ccccc1 (stereo not drawn)
IC50 [2]: > 47.1 µM (inactive)
EC50 [3]: > 53 µM (inactive)

CCC(C)Sc1ccc(-c2nc3ccc(C)cn3c2NCc2ccccc2)cc1OC (stereo not drawn)
AC50 (INS1): 6.7 µM (active)

CC(C)=CCc1c(-c2ccc(O)cc2O)oc2c3c(cc(O)c2c1=O)OC(C)(C)C=C3 [MORUSIN]
EC50 (Streptococcus): 2.96 µM (active)
EC50 [1]: 2.71 µM (active)
EC50 (Streptokinase A): 1.15 µM (active)

O=C1CSC(c2ccccc2F)N1 (stereo not drawn)
AC50 (INS1): > 260 µM (inactive)

Cc1ccccc1NC(=O)Cc1nc(COC(=O)c2cccc(O)c2)cs1
IC50 (Protein skinhead-1): > 100 µM (inactive)

O=C(N/N=C/c1c[nH]c2ccccc12)c1ccn(Cc2ccc(Cl)cc2Cl)n1
AC50 (Cytochrome P450 2D6): 7.08 µM (inconclusive)
AC50 (Cytochrome P450 3A4): 3.55 µM (inconclusive)

Cc1cc(C)c(S(=O)(=O)n2ccc3ccccc32)c(C)c1
IC50 [2]: > 47.1 µM (inactive)
EC50 [3]: > 53 µM (inactive)
